Test results as given in paper PMC5974751, “NKp44-Derived Peptide Binds Proliferating Cell Nuclear Antigen and Mediates Tumor Cell Death” (Frontiers in Immunology, 2018).

Assays:
[1] = test system: NK92-44-1 cells (NK92 overexpressing NKp44-1 splice variant); test: IFNγ secretion assay of NK92-44-1 cells co-incubated with PANC-1 cells; type: cell-based, human; settings: NK92-44-1 with HLA-I positive PANC-1, E:T 1:2; peptide 10 or 20 µg/well
Method: IFNγ secretion assay and ELISA assay were done as previously described ([11], [12]). NKp44-pep8, pep9, and pep10 (10 or 20 µg) were added to the IFNγ secretion assay.
Figure 1 Recognition of recombinant human PCNA (hPCNA) by NKp44-derived pep8 (NKp44-pep8). (A) ELISA assay representing the binding curve of biotinylated NKp44-derived pep5, pep8, and pep10 at a peptide concentration range of 0–7.24 µM to plate bond hPCNA. (B) IFNγ secretion assay of NK92-44-1 cells co-incubate with the HLA positive cell line PANC-1 (E:T ration of 1:2) in the presence of NKp44-pep8 (10 or 20 μg/well), NKp44-derived pep5 was used as negative control. Note that when we apply to NK92-44-1 pep8 (without target cells), activation of IFNγ secretion is minimal and less/similar to the observed activation when applying the pep5 negative control. (C) ELISA assay of blocking NKp44–proliferating cell nuclear antigen (PCNA) interaction via NKp44-pep8. NKp44-derived pep5 was used as a negative control. No peptide represents the maximal binding capacity of NKp44 to hPCNA. (D) ELISA assay showing the specific recognition of NKp44-pep8 (5 µg/ml) to hPCNA relative to TL1A, APO-E3, HNF4, NKp44-Ig, hNKp46-Ig, hFc. (E) ProteOn array showing the binding of hPCNA at protein concentration range of 0–250 nM to bond NKp44-pep8. 0 nM (X base-line), 15.6 nM (yellow), 31.2 (purple), 62.5 nM (green), 125 nM (blue), and 250 nM (red).

[2] = test system: recombinant human PCNA (hPCNA); test: ELISA binding of biotinylated NKp44-derived peptides to plate-bound recombinant PCNA; settings: biotinylated peptide, 0–7.24 µM (Figure 1A), streptavidin-HRP, TMB, O.D. 650 nm
Method: The pET-28 or pMAL-c2x vectors were used to produce soluble human PCNA (hPCNA) in Rosetta™ 2 (DE3) cells. Plasmids containing the mRNA sequence of PCNA or TL1A, APO-E3, HNF4 were transformed into Rosetta™ 2 cells via heat shock and grown on LB agar plates with kanamycin and chloramphenicol. A fresh colony of transformed bacteria was grown overnight in a 5 ml of LB with kanamycin and chloramphenicol an incubator shaker set to 37°C and at 250 rpm. The next day, bacteria cells were diluted 1:100 into a 500 ml of LB with kanamycin and chloramphenicol (to discard dead cells) and grown to an optical density (O.D.) of 0.6–0.8 (λ = 650 nm). Isopropyl β-D-1-thiogalactopyranoside (0.5 mM) was added for the induction of the PCNA production, and cells were further incubated for 4 h at 26°C (hPCNA). Cells were then centrifuged and the pellet was resuspended with solution A (20 mM Tris–HCl pH 8.0, 0.5 M NaCl, 20 mM imidazole), sonicated six times (20 s with 40 s intervals) and sieved through […] (Sartorius Stedim Biotech) filter before loaded on a His-tag or Amylose resin beads. Purification of His-tagged proteins was done using a Gravity-flow Column with “HisPur™ Ni-NTA Resin” Bead kit (Thermo-Scientific) (binding capacity ≤ 60 mg of a 28 kDa 6xHis-tagged protein from a bacterial source per milliliter of settled resin) according to Kits Protocol. Purification of MBP-tagged proteins was done using the Amylose resin beads (Catalog # E8035S).
To determine the interaction between NKp44-derived peptides and PCNA, ELISA plates were coated overnight at 4°C with 2 µg/ml of the recombinant PCNA or TLA1 ([49]), APO-E3 ([50]), HNF4 ([4]), rhFc, rhNKp44-hFc ([12]), rhNKp46-hFc ([51]), and PBS 1× (negative controls). Blocking buffer (PBS + 2.5% skim milk) was applied for 2 h at room temperature, after that the plates were incubated with 0–8 µM of biotinylated NKp44-derived peptides or PBS 1× (background control) for 2 h at room temperature. NKp44-derived peptides binding to PCNA was detected using horseradish peroxidase (HRP)-conjugated to streptavidin (1 h at 1:500 dilution). Following washing, TMB (DAKO, S1599) was added. O.D. was read at 650 nm (Thermo Electron Corporation Multiskan Spectrum). Between each step, wells were washed three times with PBS containing 0.05% Tween 20 (PBST).

[3] = test system: NKp44–PCNA interaction; test: ELISA blocking of NKp44-hFc interaction with PCNA; type: binding; settings: peptide 0–10 µM, NKp44-hFc 80 nM, anti-human IgG-HRP, O.D. 650 nm, negative control pep5
Method: To determine the ability of NKp44-pep8 to block NKp44-hFc interaction with PCNA, ELISA plates were coated overnight at 4°C with 2 µg/ml of the recombinant PCNA, blocking buffer (PBS + 2.5% skim milk) was applied for 2 h at room temperature, after which the plates were incubated with 0–10 µM of biotinylated NKp44-derived peptides or PBS 1× (100 μl/well, background control) for 2 h at room temperature and then NKp44-hFc (80 nM, 20 µl/well) was added without washing for 1 h at room temperature. NKp44-hFc binding to PCNA was detected using HRP conjugated to antihuman IgG (1 h at 1:400 dilution 100 μl/well). Following washing, TMB (100 μl/well DAKO, S1599) was added. O.D. was read at 650 nm (Thermo Electron Corporation Multiskan Spectrum). Between each step, wells were washed three times with 200 μl/well PBS 1× containing 0.05% Tween 20 (PBST).

Sequence: VTSSKPRTVAWTSRFTIWAA [pep10, NKp44-derived 20mer peptide, amino acids 67–86]
- IFNγ secretion / NK92 cell function in presence of peptide [1]: but not pep10 could block NKp44–PCNA interaction and upregulate NK92 cell function
- binding to recombinant hPCNA [2]: also bound to PCNA but to a lesser extent as compared with pep8
- inhibition of rhNKp44 binding to PCNA [3]: but not pep10 could block NKp44–PCNA interaction
